Results published in patent publication US20130225543A1, “SPECIFIC REGULATION OF CYTOKINE LEVELS BY HDAC6 INHIBITORS” (Acetylon Pharmaceuticals, priority 2010, published 2013).

How the values were obtained:
[1] = system: collagen induced arthritis; test: Collagen induced arthritis in mice; assay type: in vivo, male DBA/1OlaHsd mice; settings: 30 mg/kg twice daily injection from Day 18
Method: To test these two HDAC6 inhibitors in an animal model of a chronic inflammatory disease a mouse collagen induced arthritis in a semi-therapeutic mode is used. In this study male DBA/1OlaHsd mice, 6 weeks old, are anesthetized with Isoflurane and given 150 μL Type II collagen in Freund's complete adjuvant on Day 0 and Day 21. Treatment with compound is initiated on Day 18. The mice in the treatment groups are injected twice daily with 30 mg/kg of compound in 10% DMSO/10% Solutol HS15/80% 0.9% saline. […] Inflammation in the joints is measured daily and a disease score is calculated based on paw thickness.

HDAC1 = biological target: T1, HDAC1 (Homo sapiens, UniProt Q13547); test: Kinetic HDAC enzyme inhibition assay, HDAC1; assay type: biochemical; settings: recombinant HDAC
T1 construct: purchased BPS Biosciencies (San Diego, Calif.)
T1 sequence (Q13547 whole entry): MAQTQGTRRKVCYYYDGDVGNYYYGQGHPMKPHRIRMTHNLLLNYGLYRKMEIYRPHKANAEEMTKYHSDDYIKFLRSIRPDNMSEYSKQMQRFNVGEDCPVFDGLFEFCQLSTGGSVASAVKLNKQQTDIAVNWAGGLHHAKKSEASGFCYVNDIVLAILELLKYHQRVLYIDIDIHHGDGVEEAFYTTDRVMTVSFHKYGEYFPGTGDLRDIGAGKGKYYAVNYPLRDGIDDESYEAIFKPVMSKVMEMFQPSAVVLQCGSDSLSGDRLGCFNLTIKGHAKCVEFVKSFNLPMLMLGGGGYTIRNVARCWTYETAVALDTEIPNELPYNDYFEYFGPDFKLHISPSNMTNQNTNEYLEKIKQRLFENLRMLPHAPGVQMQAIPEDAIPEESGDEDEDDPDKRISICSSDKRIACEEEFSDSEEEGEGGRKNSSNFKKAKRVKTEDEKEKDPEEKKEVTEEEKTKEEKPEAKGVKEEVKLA
Method: (§1) HDAC inhibitory activity of the compounds described in Table 1 is measured using a kinetic HDAC assay. Recombinant HDACs are obtained from BPS Biosciencies (San Diego, Calif.). […] Fluorescence measurements are obtained approximately once per minute using a multilabel plate reader. Data were analyzed using GraphPad Prism.

HDAC2 = biological target: T2, HDAC2 (Homo sapiens, UniProt Q92769); test: Kinetic HDAC enzyme inhibition assay, HDAC2; assay type: biochemical; settings: recombinant HDAC
T2 construct: purchased BPS Biosciencies (San Diego, Calif.)
T2 sequence (Q92769 whole entry): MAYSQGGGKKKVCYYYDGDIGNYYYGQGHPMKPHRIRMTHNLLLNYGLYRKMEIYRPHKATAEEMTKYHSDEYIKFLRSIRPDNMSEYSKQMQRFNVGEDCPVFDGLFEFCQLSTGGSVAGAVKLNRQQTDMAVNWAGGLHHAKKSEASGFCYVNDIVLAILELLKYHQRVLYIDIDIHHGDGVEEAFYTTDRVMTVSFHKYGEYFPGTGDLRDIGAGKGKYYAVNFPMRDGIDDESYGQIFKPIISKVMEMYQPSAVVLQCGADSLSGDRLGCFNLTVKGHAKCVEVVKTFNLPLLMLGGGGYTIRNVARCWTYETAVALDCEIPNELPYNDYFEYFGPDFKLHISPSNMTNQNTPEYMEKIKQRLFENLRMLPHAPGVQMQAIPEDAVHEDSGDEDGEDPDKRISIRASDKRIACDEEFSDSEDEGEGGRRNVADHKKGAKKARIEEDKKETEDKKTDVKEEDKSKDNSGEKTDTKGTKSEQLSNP
Method: as §1

HDAC4 = biological target: T3, HDAC4 (Homo sapiens, UniProt P56524); test: Kinetic HDAC enzyme inhibition assay, HDAC4; assay type: biochemical; settings: recombinant HDAC
T3 construct: purchased BPS Biosciencies (San Diego, Calif.)
T3 sequence (P56524 whole entry): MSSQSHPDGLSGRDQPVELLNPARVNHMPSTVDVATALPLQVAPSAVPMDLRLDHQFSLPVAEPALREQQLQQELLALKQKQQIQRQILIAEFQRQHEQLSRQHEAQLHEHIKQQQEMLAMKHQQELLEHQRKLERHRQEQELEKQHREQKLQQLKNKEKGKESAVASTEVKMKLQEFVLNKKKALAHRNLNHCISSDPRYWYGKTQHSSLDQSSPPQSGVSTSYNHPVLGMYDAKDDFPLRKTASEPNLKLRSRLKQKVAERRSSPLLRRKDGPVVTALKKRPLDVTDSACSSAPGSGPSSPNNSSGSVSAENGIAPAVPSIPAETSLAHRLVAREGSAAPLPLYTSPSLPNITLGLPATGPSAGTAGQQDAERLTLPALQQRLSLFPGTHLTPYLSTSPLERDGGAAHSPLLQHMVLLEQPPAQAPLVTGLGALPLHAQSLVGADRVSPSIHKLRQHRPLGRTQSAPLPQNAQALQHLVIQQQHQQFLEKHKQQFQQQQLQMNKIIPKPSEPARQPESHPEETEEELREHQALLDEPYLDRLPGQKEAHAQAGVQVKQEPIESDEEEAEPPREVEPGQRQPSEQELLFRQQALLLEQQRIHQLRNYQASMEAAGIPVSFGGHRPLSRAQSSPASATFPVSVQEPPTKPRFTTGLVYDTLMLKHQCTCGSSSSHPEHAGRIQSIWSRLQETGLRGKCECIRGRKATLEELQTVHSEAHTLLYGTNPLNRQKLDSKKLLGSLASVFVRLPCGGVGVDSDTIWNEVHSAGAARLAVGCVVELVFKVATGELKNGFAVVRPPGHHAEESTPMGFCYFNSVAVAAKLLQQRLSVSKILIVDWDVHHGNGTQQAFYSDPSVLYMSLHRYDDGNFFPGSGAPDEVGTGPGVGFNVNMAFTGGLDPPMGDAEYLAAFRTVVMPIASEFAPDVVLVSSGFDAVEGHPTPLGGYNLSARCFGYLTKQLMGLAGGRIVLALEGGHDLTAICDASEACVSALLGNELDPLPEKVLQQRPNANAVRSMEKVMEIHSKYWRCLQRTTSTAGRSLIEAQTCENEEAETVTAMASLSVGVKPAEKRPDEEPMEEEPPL
Method: as §1

HDAC5 = biological target: T4, HDAC5 (Homo sapiens, UniProt Q9UQL6); test: Kinetic HDAC enzyme inhibition assay, HDAC5; assay type: biochemical; settings: recombinant HDAC
T4 construct: purchased BPS Biosciencies (San Diego, Calif.)
T4 sequence (Q9UQL6 whole entry): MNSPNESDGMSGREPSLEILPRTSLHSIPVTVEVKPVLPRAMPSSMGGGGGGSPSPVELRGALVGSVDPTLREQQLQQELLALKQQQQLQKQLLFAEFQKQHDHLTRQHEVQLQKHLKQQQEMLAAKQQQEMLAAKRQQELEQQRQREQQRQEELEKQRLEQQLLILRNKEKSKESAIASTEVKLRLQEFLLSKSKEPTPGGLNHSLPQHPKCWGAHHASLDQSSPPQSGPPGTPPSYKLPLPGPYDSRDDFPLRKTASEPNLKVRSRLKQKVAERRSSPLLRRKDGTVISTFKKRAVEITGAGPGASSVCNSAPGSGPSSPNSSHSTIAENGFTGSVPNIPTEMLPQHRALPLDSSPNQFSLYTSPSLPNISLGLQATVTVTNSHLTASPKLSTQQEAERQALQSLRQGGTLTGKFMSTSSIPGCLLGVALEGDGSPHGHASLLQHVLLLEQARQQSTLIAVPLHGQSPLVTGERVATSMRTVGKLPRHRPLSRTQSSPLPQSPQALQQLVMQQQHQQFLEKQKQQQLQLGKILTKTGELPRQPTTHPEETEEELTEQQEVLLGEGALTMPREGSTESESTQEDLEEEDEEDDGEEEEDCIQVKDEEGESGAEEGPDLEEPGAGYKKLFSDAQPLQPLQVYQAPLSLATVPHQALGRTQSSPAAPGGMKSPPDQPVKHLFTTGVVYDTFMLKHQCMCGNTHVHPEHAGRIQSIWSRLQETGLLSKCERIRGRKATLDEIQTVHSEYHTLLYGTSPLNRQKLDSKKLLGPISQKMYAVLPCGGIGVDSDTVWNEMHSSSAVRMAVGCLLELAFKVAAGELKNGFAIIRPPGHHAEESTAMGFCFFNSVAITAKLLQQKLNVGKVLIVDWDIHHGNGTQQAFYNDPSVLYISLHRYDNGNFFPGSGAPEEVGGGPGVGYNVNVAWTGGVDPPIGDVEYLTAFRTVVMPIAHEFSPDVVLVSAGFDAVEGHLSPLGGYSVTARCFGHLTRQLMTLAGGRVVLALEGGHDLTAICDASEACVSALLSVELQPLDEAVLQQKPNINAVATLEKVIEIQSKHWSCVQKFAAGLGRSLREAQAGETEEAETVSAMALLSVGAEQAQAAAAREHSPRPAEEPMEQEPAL
Method: as §1

HDAC7 = biological target: T5, HDAC7 (Homo sapiens, UniProt Q8WUI4); test: Kinetic HDAC enzyme inhibition assay, HDAC7; assay type: biochemical; settings: recombinant HDAC
T5 construct: purchased BPS Biosciencies (San Diego, Calif.)
T5 sequence (Q8WUI4 1-952): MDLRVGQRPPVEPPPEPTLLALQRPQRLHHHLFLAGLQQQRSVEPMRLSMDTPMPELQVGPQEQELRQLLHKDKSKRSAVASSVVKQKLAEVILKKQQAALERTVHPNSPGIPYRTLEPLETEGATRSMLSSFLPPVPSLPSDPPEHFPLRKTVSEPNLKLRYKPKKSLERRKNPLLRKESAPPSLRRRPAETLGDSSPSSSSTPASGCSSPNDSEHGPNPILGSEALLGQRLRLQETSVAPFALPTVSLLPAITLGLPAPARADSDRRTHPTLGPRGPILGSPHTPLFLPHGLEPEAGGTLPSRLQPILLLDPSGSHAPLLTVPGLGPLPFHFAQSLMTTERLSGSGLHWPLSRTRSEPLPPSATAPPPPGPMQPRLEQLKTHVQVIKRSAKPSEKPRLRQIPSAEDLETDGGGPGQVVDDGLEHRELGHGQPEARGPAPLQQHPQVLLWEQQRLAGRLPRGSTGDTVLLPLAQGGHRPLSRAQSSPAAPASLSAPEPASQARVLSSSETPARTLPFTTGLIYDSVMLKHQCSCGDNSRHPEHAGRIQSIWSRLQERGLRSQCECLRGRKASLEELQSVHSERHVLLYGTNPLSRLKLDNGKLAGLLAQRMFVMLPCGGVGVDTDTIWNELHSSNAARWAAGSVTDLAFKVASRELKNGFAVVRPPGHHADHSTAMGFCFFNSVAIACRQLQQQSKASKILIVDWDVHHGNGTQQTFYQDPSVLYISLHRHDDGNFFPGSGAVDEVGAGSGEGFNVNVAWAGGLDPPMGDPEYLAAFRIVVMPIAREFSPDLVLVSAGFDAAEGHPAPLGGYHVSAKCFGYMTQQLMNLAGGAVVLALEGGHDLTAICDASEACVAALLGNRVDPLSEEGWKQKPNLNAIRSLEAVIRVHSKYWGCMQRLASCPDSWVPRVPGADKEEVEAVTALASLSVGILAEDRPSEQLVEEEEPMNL
Method: as §1

HDAC9 = biological target: T6, HDAC9 (Homo sapiens, UniProt Q9UKV0); test: Kinetic HDAC enzyme inhibition assay, HDAC9; assay type: biochemical; settings: recombinant HDAC
T6 construct: purchased BPS Biosciencies (San Diego, Calif.)
T6 sequence (Q9UKV0 whole entry): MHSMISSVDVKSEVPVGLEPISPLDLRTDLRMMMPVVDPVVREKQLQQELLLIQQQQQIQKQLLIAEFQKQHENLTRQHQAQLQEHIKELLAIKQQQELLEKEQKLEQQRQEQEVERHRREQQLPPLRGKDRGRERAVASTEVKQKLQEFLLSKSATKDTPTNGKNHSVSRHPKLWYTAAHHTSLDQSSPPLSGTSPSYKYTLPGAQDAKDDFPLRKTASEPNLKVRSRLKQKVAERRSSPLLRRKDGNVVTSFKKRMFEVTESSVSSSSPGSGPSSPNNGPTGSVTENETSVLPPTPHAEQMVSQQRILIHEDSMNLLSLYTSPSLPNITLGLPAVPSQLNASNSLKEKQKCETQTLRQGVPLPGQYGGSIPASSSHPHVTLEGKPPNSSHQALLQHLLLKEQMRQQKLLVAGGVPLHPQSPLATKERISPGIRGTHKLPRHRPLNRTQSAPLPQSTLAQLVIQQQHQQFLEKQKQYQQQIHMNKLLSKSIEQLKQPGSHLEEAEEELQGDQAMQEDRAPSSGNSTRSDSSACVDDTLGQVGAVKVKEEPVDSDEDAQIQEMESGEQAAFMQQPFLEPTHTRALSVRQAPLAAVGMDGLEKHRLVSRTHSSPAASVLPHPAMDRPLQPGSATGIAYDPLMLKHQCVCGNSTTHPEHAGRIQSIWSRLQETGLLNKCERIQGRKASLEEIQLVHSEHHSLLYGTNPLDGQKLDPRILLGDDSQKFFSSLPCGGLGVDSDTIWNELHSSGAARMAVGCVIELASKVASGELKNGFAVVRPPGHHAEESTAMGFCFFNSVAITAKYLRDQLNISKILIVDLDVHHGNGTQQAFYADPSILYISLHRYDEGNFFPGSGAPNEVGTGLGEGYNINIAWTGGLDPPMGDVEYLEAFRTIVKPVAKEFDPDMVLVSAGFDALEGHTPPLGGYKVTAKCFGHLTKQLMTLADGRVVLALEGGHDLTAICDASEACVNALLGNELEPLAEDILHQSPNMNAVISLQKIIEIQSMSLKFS
Method: as §1

human PBMCs = test: LPS induced cytokine release from PBMCs; assay type: cell-based; settings: 1 μM compound, 0.5 ng/ml LPS overnight
Method: Whole blood from three anonymous donors is collected in vacutainer tubes with sodium heparin as an anti-coagulant (Research Blood Components, Brighton, Mass.). A total volume of 30 ml of blood is diluted and layered over Ficoll-Paque Plus (GE Life Sciences) and centrifuged at 400×g for 30 minutes. The peripheral blood mononuclear cell (PBMC) fraction is removed from the interface of plasma and Ficoll and washed once with PBS.
Cells are seeded in 24 well plates at a density of 400,000 cells per well.
After the overnight stimulation the plates are centrifuged at 200×g for 5 minutes. The supernatant is removed and a small aliquot is reserved for determination of TNFα levels by ELISA (R&D Systems, catalog number STA00C). The remainder of the supernatant is frozen at −80° C. and sent to Millipore Bioscience Division (St. Charles, Mo.) for multiplex cytokine analysis.

[2] = system: RAW264.7 mouse macrophages; test: TNFα protein and mRNA in LPS stimulated RAW264.7 macrophages; assay type: cell-based; settings: 10 ng/ml LPS, two hours; for TNFα protein level in supernatant: ELISA; for TNFα mRNA level: RT-PCR relative to GAPDH
Method: The cells are stimulated with 10 ng/ml LPS and incubated for two hours. The cell supernatants are collected and assayed for the level of TNFα by ELISA. The cells are harvested and mRNA purified using an RNEasy kit from Qiagen. The level of TNFα mRNA is determined by RT-PCR using a StepOne Plus real time PCR machine. The change in the relative level of TNFα mRNA as compared to the level of GAPDH mRNA is plotted, along with the concentration of TNFα protein in the supernatant (see FIG. 4).

IL-1β = settings: Carta et al. 2006; cited from earlier work
Class I HDACs and HDAC6 = settings: Bradner et al. 2010; cited from earlier work
[3] = system: proinflammatory cytokines; settings: Leoni et al. 2002, 2005; cited from earlier work

O=C(CCCCCCNC(=O)c1cnc(N(c2ccccc2)c2ccccc2)nc1)NO [ACY-63]
Decrease of severity of disease (average) [1]: 67%

Cc1ccccc1N(c1ccccc1)c1ncc(C(=O)NCCCCCCC(=O)NO)cn1 [ACY-216]
IC50 (HDAC1): 57 nM | IC50 (HDAC2): 131 nM | IC50 (HDAC4): > 10 µM | IC50 (HDAC5): > 10 µM | IC50 (HDAC7): > 10 µM | IC50 (HDAC9): > 10 µM | Number of LPS induced cytokines decreased (of eight) (human PBMCs): three of eight

O=C(CCCCCCNC(=O)c1ccc(C(O)(c2ccccn2)c2ccccn2)cc1)NO [ACY-251]
IC50 (HDAC1): 45 nM | IC50 (HDAC2): 96 nM | IC50 (HDAC4): > 10 µM | IC50 (HDAC5): 5.9 µM | IC50 (HDAC7): > 10 µM | IC50 (HDAC9): > 10 µM

COC(c1ccc(F)cc1)(c1ccc(F)cc1)c1ccc(C(=O)NCCCCCCC(=O)NO)cc1 [ACY-257]
IC50 (HDAC1): 178 nM | IC50 (HDAC2): 450 nM | IC50 (HDAC4): > 10 µM | IC50 (HDAC5): 8.2 µM | IC50 (HDAC7): > 10 µM | IC50 (HDAC9): > 10 µM | Effect on production of GM-CSF (human PBMCs): significantly decreasing | Effect on production of IL-1β (human PBMCs): significantly decreasing | Effect on production of IL-6 (human PBMCs): significantly decreasing | Effect on production of IL-7 (human PBMCs): no effect | Effect on production of IL-8 (human PBMCs): no effect | Effect on production of IL-10 (human PBMCs): significantly decreasing | Effect on production of MCP-1 (human PBMCs): no effect | Effect on production of TNF-α (human PBMCs): significantly decreasing | Number of LPS induced cytokines decreased (of eight) (human PBMCs): five of eight | Decrease of severity of disease (average) [1]: 50%

O=C(NO)c1cnc(NC2(c3ccccc3)CC2)nc1 [ACY-738]
IC50 (HDAC4): 1.6 µM | IC50 (HDAC5): 0.882 µM | IC50 (HDAC7): 1.6 µM | IC50 (HDAC9): 0.914 µM | TNFα protein level in supernatant [2]: inhibition | TNFα protein level in supernatant ([2]; listed as ACY-739): decreases | TNFα mRNA level [2]: inhibition | TNFα mRNA level ([2]; listed as ACY-739): decreases

C[C@@H]1NC(=O)[C@H]2CCCN2C(=O)[C@H](CCCCCC(=O)[C@@H]2CO2)NC(=O)[C@@H](C)NC1=O [HC-toxin]
Level of synthesis or intracellular localization of the precursors of IL-1β (IL-1β): do not affect | Secretion of mature IL-1β (IL-1β): inhibit secretion

CCN(CC)Cc1ccc2cc(COC(=O)Nc3ccc(C(=O)NO)cc3)ccc2c1 [ITF2357]
HDAC class selectivity (Class I HDACs and HDAC6): selective for Class I HDACs and HDAC6 but not Class IIa | Levels of proinflammatory cytokines [3]: non-specifically reduce | Level of synthesis or intracellular localization of the precursors of IL-1β (IL-1β): do not affect | Secretion of mature IL-1β (IL-1β): inhibit secretion

O=C(CCCCCCC(=O)Nc1ccccc1)NO [SAHA, Suberoylanilide hydroxamic acid]
Number of LPS induced cytokines decreased (of eight) (human PBMCs): six out of eight | Levels of proinflammatory cytokines [3]: non-specifically reduce | Level of synthesis or intracellular localization of the precursors of IL-1β (IL-1β): do not affect | Secretion of mature IL-1β (IL-1β): inhibit secretion

CC(/C=C/C(=O)NO)=C\[C@@H](C)C(=O)c1ccc(N(C)C)cc1 [Trichostatin A]
Level of synthesis or intracellular localization of the precursors of IL-1β (IL-1β): do not affect | Secretion of mature IL-1β (IL-1β): inhibit secretion

O=C(CCCCCCC(=O)Nc1ccc([C@H]2O[C@@H](CSc3nc(-c4ccccc4)c(-c4ccccc4)o3)C[C@@H](c3ccc(CO)cc3)O2)cc1)NO [tubacin]
Level of synthesis or intracellular localization of the precursors of IL-1β (IL-1β): do not affect | Secretion of mature IL-1β (IL-1β): inhibit secretion
